From US20250074910A1, “MENIN INHIBITOR AND USE THEREOF” (HITGEN INC., priority 2021, published 2025)
“And” between values parts separate entries of the source, which are not always exact repeats. Equal entries are not always repeated.

target: Menin/MLL-4-43 peptide interaction (Homo sapiens (Human), UniProt O00255); assay: Menin-MLL interaction inhibitory activity assay (fluorescence polarization competition); type: binding; conditions: FITC-MLL4-43-peptide, Menin recombinant protein
Method in brief: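 Menin (8 nM solution) was preincubated 15 min with compound, then FITC-MLL4-43 peptide (10 nM solution) was added and shaken for 60 min at 25 °C. The buffer was 50 mM Tris pH 7.5, 50 mM NaCl, 1 mM DTT. IC50 was derived from fluorescence polarization read at 485/520 nm.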

Chain of Menin/MLL-4-43 peptide interaction (O00255 whole entry, species assumed): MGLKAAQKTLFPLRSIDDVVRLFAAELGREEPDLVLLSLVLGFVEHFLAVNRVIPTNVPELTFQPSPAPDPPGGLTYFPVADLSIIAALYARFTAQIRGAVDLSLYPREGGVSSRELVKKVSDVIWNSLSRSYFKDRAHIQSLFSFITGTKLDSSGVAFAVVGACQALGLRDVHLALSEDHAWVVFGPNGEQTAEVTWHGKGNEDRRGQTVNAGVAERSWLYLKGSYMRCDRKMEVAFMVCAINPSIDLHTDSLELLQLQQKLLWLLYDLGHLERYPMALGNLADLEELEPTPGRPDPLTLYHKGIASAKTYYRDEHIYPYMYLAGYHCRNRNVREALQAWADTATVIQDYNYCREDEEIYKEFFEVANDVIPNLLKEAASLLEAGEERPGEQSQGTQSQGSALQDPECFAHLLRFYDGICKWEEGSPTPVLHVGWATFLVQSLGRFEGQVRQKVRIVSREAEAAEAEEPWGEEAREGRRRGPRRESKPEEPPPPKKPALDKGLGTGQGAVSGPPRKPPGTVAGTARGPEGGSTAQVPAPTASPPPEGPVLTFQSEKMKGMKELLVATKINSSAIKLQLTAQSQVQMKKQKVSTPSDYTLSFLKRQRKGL

Row | SMILES | IC50 [nM]
1 | CC(C)N(C(=O)c1cc(F)ccc1Oc1nncnc1N1CC2(CCN(C[C@H]3CC[C@]4(CC3)CC(C(C)(C)O)C(=O)N4)CC2)C1)C(C)C (single isomer, unassigned) [Example 59-1b] | 10.3
2 | CC(C)N(C(=O)c1cc(F)ccc1Oc1cncnc1N1CC2(CCN(C[C@H]3CC[C@@]4(CCC(=O)N4)CC3)CC2)C1)C(C)C [Example 5] | 34

system: MV4-11; assay: Cell proliferation inhibition (CellTiter-Glo), MV4-11; type: cell-based; conditions: Homo sapiens, MV4-11, 72 h, MV4-11 cells
Method in brief: (§1)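 IC50 values come from dose-response fitting of CellTiter-Glo luminescence after 72-168 h compound exposure (final 1 nM-10 μM) at 37° C and 5% CO2, with 5,000-20,000 cells plated per well.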

Row | SMILES | GI50 [nM]
3 | CC(C)N(C(=O)c1cc(F)ccc1Oc1cncnc1N1CC2(CCN(C[C@H]3CC[C@@]4(CCC(=O)N4)CC3)CC2)C1)C(C)C [Example 5] | 47.8

same assay, conditions: MV4-11 cells, 72 h

Row | SMILES | GI50 [nM]
4 | CC(C)N(C(=O)c1cc(F)ccc1Oc1nncnc1N1CC2(CCN(C[C@H]3CC[C@]4(CC3)CC(C(C)(C)O)C(=O)N4)CC2)C1)C(C)C (single isomer, unassigned) [Example 59-1b] | 9.5

system: MOLM-13; assay: Cell proliferation inhibition (CellTiter-Glo), MOLM-13; type: cell-based; conditions: Homo sapiens, MOLM-13, 168 h, MOLM-13 cells
Description: Test Example 2: Test of the Inhibitory Ability of Menin-MLL Interaction Inhibitors on Cell Proliferation
The inhibitory ability of the compounds of the present disclosure on the proliferation of tumor cell lines (including cell lines containing MLL fusion protein such as MV4-11, MOLM-13, THP-1 and NOMO-1, control cell lines without MLL fusion protein such as HL-60, K562 and MOLM-16, and cell lines containing NPM1 mutation such as OCI-AML3) was evaluated by using the cell viability analysis method. The cells were plated in 96-well plates at a certain concentration (e.g., 5,000-20,000 cells/well), and then an equal volume of culture medium containing 2 times the final concentration of the test compound (the final concentration ranging 10 from 1 nM to 10 μM) was added. The plates were placed in an incubator and cultured at 37° C. and 5% CO2 for 72-168 h. Before the test, an equal volume of CellTiter-Glo® Luminescent reagent was added, and the plate was incubated at room temperature for 10 min before detection using an ELISA reader (BMG LABTECH). The data were analyzed using GraphPad Prism software to obtain the IC50 value and compound fitting curve. The control compound 1 was prepared by referring to the method of Example 64 in WO2017214367.

Row | SMILES | GI50 [nM]
5 | CC(C)N(C(=O)c1cc(F)ccc1Oc1cncnc1N1CC2(CCN(C[C@H]3CC[C@@]4(CCC(=O)N4)CC3)CC2)C1)C(C)C [Example 5] | 46.5

same assay, conditions: MOLM-13 cells, 168 h

Row | SMILES | GI50 [nM]
6 | CC(C)N(C(=O)c1cc(F)ccc1Oc1nncnc1N1CC2(CCN(C[C@H]3CC[C@]4(CC3)CC(C(C)(C)O)C(=O)N4)CC2)C1)C(C)C (single isomer, unassigned) [Example 59-1b] | 34.3

system: OCI-AML3; assay: Cell proliferation inhibition (CellTiter-Glo), OCI-AML3 (NPM1 mutation); type: cell-based; conditions: Homo sapiens, OCI-AML-3, 168 h, OCI-AML3 cells
Method in brief: as §1

Row | SMILES | GI50 [nM]
7 | CC(C)N(C(=O)c1cc(F)ccc1Oc1cncnc1N1CC2(CCN(C[C@H]3CC[C@@]4(CCC(=O)N4)CC3)CC2)C1)C(C)C [Example 5] | 242

same assay, conditions: OCI-AML3 cells, 168 h

Row | SMILES | GI50 [nM]
8 | CC(C)N(C(=O)c1cc(F)ccc1Oc1nncnc1N1CC2(CCN(C[C@H]3CC[C@]4(CC3)CC(C(C)(C)O)C(=O)N4)CC2)C1)C(C)C (single isomer, unassigned) [Example 59-1b] | 20.1

system: not listed separately; assay: Stability in mouse liver microsomes; type: in vitro ADME; conditions: liver microsomes, pH 7.4, 0.5 mg/mL microsomal protein, 1.00 μM compound, NADPH, read-out: Half life T1/2, mouse liver microsomes
Description: (§2) Test Example 3: Test of Stability of Compounds in Liver Microsome
(§3) Test purpose: To determine the stability of some of the compounds of the present disclosure in mouse, dog and human liver microsomes by LC-MS/MS method.
(§4) Test materials: The test drugs were in-house prepared example compounds of the present disclosure; the positive reference compound SNDX-5613 was prepared by the method of Example 253 in patent WO2017214367; the control compound 1 was prepared by the method of Example 64 in WO2017214367; liver microsomes were purchased from CORNING.
(§5) The total volume of each incubation system was approximately 45 μL, and the medium was 100 mM phosphate buffer (PBS, pH 7.4), including liver microsomal protein at a final concentration of 0.5 mg/mL, 1.00 μM compound and 2.00 mM NADPH, and the organic phase content was <1%. Incubation was performed in a 37° C. incubator, and 135 μL of ice-cold acetonitrile was added after 0, 5, 15, 30 and 60 min of reaction to terminate the reaction. The positive control group was incubated with 1.00 μM Ketanserin, 0.5 mg/mL liver microsomal protein and 2.00 mM NADPH in a 37° C. incubator for 0, 5, 15, 30 and 60 min respectively, and then 135 μL of ice-cold acetonitrile was added to terminate the reaction. The 96-well plates were shaken at 600 rpm for 10 min and then centrifuged at 4700 rpm at 4° C. for 15 min. 80 μL of supernatant was mixed with 320 μL of pure water, and the remaining amount of the compound was detected by LC-MS/MS method. The in vitro half life (T½) and intrinsic clearance (CLint) were calculated according to the following formula:
(§6) Intrinsic clearance (Clint)=(0.693/T1/2)×(1/liver microsome concentration)×conversion factor. k is the linear regression slope of the remaining percentage of the ln compound-incubation time.

Row | SMILES | half-life at 1 μM [h]
9 | CC(C)N(C(=O)c1cc(F)ccc1Oc1nncnc1N1CC2(CCN(C[C@H]3CC[C@]4(CC3)CC(C(C)(C)O)C(=O)N4)CC2)C1)C(C)C (single isomer, unassigned) [Example 59-1b] | 1.65

system: not listed separately; assay: Stability in human liver microsomes; type: in vitro ADME; conditions: human, liver microsomes, pH 7.4, Human; 0.5 mg/mL microsomal protein, 1.00 μM compound, NADPH; read-out: Half life T1/2, human liver microsomes
Description: as §2, §3, §4, §5, §6

Row | SMILES | half-life at 1 μM [h]
10 | CC(C)N(C(=O)c1cc(F)ccc1Oc1nncnc1N1CC2(CCN(C[C@H]3CC[C@]4(CC3)CC(C(C)(C)O)C(=O)N4)CC2)C1)C(C)C (single isomer, unassigned) [Example 59-1b] | 0.479

system: not listed separately; assay: Stability in dog liver microsomes; type: in vitro ADME; conditions: dog, liver microsomes, pH 7.4, Dog; 0.5 mg/mL microsomal protein, 1.00 μM compound, NADPH; read-out: Half life T1/2, dog liver microsomes
Description: as §2, §3, §4, §5, §6

Row | SMILES | half-life at 1 μM [h]
11 | CC(C)N(C(=O)c1cc(F)ccc1Oc1nncnc1N1CC2(CCN(C[C@H]3CC[C@]4(CC3)CC(C(C)(C)O)C(=O)N4)CC2)C1)C(C)C (single isomer, unassigned) [Example 59-1b] | 1.17

system: not listed separately; assay: Pharmacokinetics test in mouse; type: in vivo, ICR mice; conditions: male, ICR, mouse, plasma, po, 10 mg/kg, mice, p.o. 10 mg/kg
Excerpt: Test Example 4. In Vivo Pharmacokinetic Study
Test purpose: To determine the pharmacokinetic properties of some of the example compounds of the present disclosure in mice, rats and dogs after single intravenous injection (i.v.) and oral gavage (i.g.) administration by LC-MS/MS method.
Research methods: An appropriate amount of compound was weighed and prepared into a transparent clear solution of a certain concentration using 0.9% sodium chloride injection and 1.5 equivalents of 1M HCl aqueous solution based on the molar number of the compound. After SPF male ICR mice, SPF male SD rats, and male beagle dogs were fasted overnight, the test compound solution was given by intravenous injection and oral gavage at the corresponding dose. Anticoagulated whole blood of the test animals was collected at 5 min, 15 min, 30 min, 1 h, 2 h, 4 h, 8 h, and 24 h after administration, and plasma was separated. Plasma samples at each time point were detected by LC-MS/MS, and the plasma concentration of the compound was determined by the standard curve correction method. Phoenix WinNonlin 5.2 non-compartmental model was used to calculate the pharmacokinetic parameters of terminal elimination half-life (t½), blood peak concentration (Cmax), area under the concentration-time curve (AUC), clearance (CL), and bioavailability (F %), which was directly obtained from the serum concentration results. Blood drug concentration and pharmacokinetic parameters are expressed as mean±standard deviation (X±SD). The specific test protocols for each species are as follows.
Pharmacokinetics Test in Mouse
Test animals: SPF male ICR mice, weighing 25-30 g, 12 mice/compound, purchased from Chengdu Dossy Experimental Animal Co., Ltd.
Test design: On the day of the test, ICR mice were randomly divided into groups according to body weight, fasted but with free water for 12-14 h one day before administration, and fed 2 h after administration.
Preparation of test compound solution: The concentration of the test compound for oral gavage was 1 mg/mL. An appropriate amount of compound was weighed and prepared into a 1 mg/mL transparent clear solution using 0.9% sodium chloride injection and 1.5 equivalents of 1M HCl aqueous solution. The concentration of the test compound for intravenous injection was 0.2 mg/mL. The 1 mg/mL transparent clear solution was diluted to a concentration of 0.2 mg/mL using 0.9% sodium chloride injection. The volume of 1 M HCl solution added was calculated as: volume of 1 M HCl solution added […]=weighed amount of compound (mg)/molecular weight×1.5×1000. The amount added during preparation must not exceed the calculated value.
The test substance was administered as follows: intravenous injection: 1 mg/kg of dose, 5 mL/kg of volume, 6 mice; oral gavage: 10 mg/kg of dose, 10 mL/kg of volume, 6 mice.
Sample collection: Blood (40-50 μl) was collected in anticoagulant tubes sprayed with EDTA-K2 through the orbital venous plexus at 5 min, 15 min, 30 min, 1 h, 2 h, 4 h, 8 h, and 24 h after administration, and centrifuged at 10,000 rpm for 20 min within 1 h (the blood was saved on wet ice before and after centrifugation). The supernatant, which was plasma, was collected and frozen in a refrigerator at −20° C. or below for LC-MS/MS analysis of Full PK of male ICR mice (2 mice per group, 4 blood collection time points per mouse, crossover).

Row | SMILES | AUC(0-t) [ng·h/mL] | half-life [h]
12 | CC(C)N(C(=O)c1cc(F)ccc1Oc1cncnc1N1CC2(CCN(C[C@H]3CC[C@@]4(CCC(=O)N4)CC3)CC2)C1)C(C)C [Example 5] | 7700 | 1.37

same assay, conditions: male, ICR, mouse, plasma, po, 10 mg/kg, mice, p.o. 10 mg/kg; read-out: Cmax

Row | SMILES | Cmax [ng/mL]
13 | CC(C)N(C(=O)c1cc(F)ccc1Oc1cncnc1N1CC2(CCN(C[C@H]3CC[C@@]4(CCC(=O)N4)CC3)CC2)C1)C(C)C [Example 5] | 2620

same assay, conditions: mice, p.o. 10 mg/kg

Row | SMILES | AUClast [ng·h/mL] | Cmax [ng/mL] | T1/2 [h]
14 | CC(C)N(C(=O)c1cc(F)ccc1Oc1cncnc1N1CC2(CCN(C[C@H]3CC[C@@]4(CCC(=O)N4)CC3)CC2)C1)C(C)C [Example 5] | 8285 | 2535 | 1.91

same assay, conditions: mice, p.o. 10 mg/kg; 1 mg/kg for intravenous injection

Row | SMILES | F, %
15 | CC(C)N(C(=O)c1cc(F)ccc1Oc1cncnc1N1CC2(CCN(C[C@H]3CC[C@@]4(CCC(=O)N4)CC3)CC2)C1)C(C)C [Example 5] | 84% and 72%

target: hERG potassium ion channel (Homo sapiens (Human), UniProt Q12809); assay: hERG potassium channel effect test (manual patch clamp, HEK293 cells overexpressing hERG); type: cell-based; conditions: human, HEK293 cells overexpressing hERG potassium ion channels; 30 μm; read-out: Average inhibition rate of hERG current at the highest compound tested concentration
Description: Test Example 6: hERG Potassium Channel Effect Test
The hERG inhibition test was performed on some of the example compounds of the present disclosure using the manual electrophysiological patch clamp method. The cell line was derived from HEK293 cells that overexpressed hERG potassium ion channels. The specific experimental protocol was developed by PharmaCore Labs with reference to literature published in peer-reviewed journals and was performed by PharmaCore Labs in accordance with its standard experimental operating procedures. The highest test concentration was 30 μM.

Chain of hERG potassium ion channel (Q12809 whole entry): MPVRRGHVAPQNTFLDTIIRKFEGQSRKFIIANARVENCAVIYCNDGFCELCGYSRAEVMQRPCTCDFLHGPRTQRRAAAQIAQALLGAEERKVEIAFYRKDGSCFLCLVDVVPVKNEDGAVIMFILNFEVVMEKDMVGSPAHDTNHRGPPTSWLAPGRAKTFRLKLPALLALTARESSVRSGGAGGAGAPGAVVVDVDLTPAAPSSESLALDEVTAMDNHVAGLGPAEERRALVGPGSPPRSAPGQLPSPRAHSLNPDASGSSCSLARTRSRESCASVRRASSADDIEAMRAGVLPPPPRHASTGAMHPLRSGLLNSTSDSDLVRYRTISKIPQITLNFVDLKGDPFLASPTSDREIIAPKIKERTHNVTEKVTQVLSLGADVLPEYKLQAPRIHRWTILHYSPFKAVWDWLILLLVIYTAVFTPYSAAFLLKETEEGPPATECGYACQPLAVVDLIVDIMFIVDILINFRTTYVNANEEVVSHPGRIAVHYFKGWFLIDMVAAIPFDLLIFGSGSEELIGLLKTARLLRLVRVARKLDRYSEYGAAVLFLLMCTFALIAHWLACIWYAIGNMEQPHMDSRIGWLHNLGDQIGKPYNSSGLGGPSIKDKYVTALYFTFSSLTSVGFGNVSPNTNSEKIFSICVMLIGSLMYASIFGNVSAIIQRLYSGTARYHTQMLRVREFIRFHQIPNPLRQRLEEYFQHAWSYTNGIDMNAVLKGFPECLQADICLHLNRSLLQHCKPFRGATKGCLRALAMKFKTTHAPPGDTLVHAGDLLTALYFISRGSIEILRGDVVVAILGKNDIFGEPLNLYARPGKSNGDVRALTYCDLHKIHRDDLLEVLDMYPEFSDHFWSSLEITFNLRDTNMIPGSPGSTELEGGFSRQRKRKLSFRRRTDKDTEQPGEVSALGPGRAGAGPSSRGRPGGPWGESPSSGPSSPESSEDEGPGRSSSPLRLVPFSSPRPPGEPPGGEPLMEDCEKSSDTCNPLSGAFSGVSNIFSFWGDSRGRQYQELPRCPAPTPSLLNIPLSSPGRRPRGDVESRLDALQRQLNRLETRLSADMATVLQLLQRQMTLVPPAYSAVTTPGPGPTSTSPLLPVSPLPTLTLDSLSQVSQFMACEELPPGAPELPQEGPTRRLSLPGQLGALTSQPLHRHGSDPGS

Row | SMILES | inhibition at 30 μM [%]
16 | CC(C)N(C(=O)c1cc(F)ccc1Oc1cncnc1N1CC2(CCN(C[C@H]3CC[C@@]4(CCC(=O)N4)CC3)CC2)C1)C(C)C [Example 5] | 33.1

same assay, conditions: manual patch clamp, highest test concentration 30 μM

Row | SMILES | IC50 [nM]
17 | CC(C)N(C(=O)c1cc(F)ccc1Oc1cncnc1N1CC2(CCN(C[C@H]3CC[C@@]4(CCC(=O)N4)CC3)CC2)C1)C(C)C [Example 5] | > 30000
